Experimental data reported in BindingDB's records for doi:10.1021/jm980511k (Research Triangle Institute, 1999).

Assays:
[1] = Inhibition of [35S]GTP-gamma-S, binding from Opioid receptor delta 1 in Guinea pig Caudate stimulated by SNC80
[2] = Binding affinity determined on Opioid receptor delta 1 in Guinea pig brain membranes using radioligand [3H]DADLE

Structure (SMILES)	Ki [1]	Ki [2]
C[C@@H]1CN(C/C=C/c2ccccc2)CC[C@]1(C)c1cccc(O)c1 [3-[(3S,4S)-3,4-Dimethyl-1-((E)-3-phenyl-allyl)-piperidin-4-yl]-phenol]	1.5 nM	322 nM
CC(C)[C@@H](CN1CC[C@@](C)(c2cccc(O)c2)[C@@H](C)C1)NC(=O)CCc1ccc(O)cc1 [3-(4-Hydroxy-phenyl)-N-{1-[4-(3-hydroxy-phenyl)-3,4-dimethyl-piperidin-1-ylmethyl]-2-methyl-propyl}-propionamide]	–	> 5700 nM
